Measurements reported in ChEMBL document CHEMBL5236605, “Design and synthesis of dual cathepsin L and S inhibitors and antimetastatic activity evaluation in pancreatic cancer cells” (Bioorg Med Chem Lett, 2023).
Calls of active or inactive are those of the source. The calls are words filed in the database; no cut-off is given here.

Assays:
Cathepsin B = Cathepsin B (Homo sapiens, UniProt P07858); test: Inhibition of human cathepsin B
Cathepsin S [1] = biological target: T1, Cathepsin S (Homo sapiens, UniProt P25774); test: Inhibition of human cathepsin S
Target sequence in this assay (P25774 whole entry): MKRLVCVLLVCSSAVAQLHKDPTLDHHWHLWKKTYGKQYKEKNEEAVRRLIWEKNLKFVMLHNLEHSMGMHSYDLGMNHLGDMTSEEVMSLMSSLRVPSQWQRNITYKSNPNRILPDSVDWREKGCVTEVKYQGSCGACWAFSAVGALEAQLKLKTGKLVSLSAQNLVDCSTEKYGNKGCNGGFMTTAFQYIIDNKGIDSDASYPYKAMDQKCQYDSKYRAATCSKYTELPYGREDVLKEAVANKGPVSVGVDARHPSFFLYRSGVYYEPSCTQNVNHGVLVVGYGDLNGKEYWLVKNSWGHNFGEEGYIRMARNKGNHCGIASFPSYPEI

Procathepsin L [2] = biological target: T2, Procathepsin L (Homo sapiens, UniProt P07711); test: Inhibition of human cathepsin L
Target sequence in this assay (P07711 whole entry): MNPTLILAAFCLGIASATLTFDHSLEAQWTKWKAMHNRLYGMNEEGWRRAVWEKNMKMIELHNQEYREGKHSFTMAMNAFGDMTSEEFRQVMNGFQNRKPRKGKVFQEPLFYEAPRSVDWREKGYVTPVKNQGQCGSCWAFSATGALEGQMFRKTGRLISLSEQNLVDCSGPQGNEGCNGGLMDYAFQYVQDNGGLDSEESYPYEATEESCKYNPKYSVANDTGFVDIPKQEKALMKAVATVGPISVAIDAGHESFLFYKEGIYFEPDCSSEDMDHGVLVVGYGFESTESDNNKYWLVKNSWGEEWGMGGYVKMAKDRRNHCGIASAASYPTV

Cathepsin K = biological target: T3, Cathepsin K (Homo sapiens, UniProt P43235); test: Inhibition of human cathepsin K
T3 sequence (P43235 whole entry): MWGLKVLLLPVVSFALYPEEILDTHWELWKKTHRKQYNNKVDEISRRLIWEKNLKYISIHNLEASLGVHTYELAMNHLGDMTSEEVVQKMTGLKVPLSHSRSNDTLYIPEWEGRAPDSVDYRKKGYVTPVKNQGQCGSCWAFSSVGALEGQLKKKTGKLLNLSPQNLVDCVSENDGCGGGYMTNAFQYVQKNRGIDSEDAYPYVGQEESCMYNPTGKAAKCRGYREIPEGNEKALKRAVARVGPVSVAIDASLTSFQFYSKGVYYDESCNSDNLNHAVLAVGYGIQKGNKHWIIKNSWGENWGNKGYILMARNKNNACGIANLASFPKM

PANC-1 [3] = test: Anti-invasive activity in human PANC-1 cells assessed as reduction in cell invasion at 6.25 to 25 uM incubated for 24 hrs by crystal violet staining based transwell migration assay; format: functional; conditions: dose 6.25-25 µM
PANC-1 [4] = test: Antimetastatic activity in human PANC-1 cells assessed as reduction in cell migration at 6.25 to 25 uM incubated for 48 hrs by wound healing assay; format: functional, cell-based; conditions: dose 6.25-25 µM
BXPC-3 [5] = test: Antiproliferative activity against human BxPC-3 cells assessed as reduction of cell viability at <25 uM by MTT assay; format: functional
Cathepsin S [6] = biological target: T1, Cathepsin S; test: Inhibition of cathepsin S activity in human PANC-1 cells at 6.25 to 25 uM incubated for 48 hrs by fluorescence-based assay; format: cell-based; conditions: dose 6.25-25 µM
Target sequence in this assay (P25774 115-331 limits assumed): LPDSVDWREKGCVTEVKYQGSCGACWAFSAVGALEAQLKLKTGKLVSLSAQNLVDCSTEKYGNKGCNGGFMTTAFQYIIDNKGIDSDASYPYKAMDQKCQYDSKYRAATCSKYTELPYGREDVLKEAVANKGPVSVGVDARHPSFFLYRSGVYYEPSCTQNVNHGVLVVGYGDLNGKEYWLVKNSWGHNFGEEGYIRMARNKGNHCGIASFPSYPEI

BXPC-3 [7] = test: Antimetastatic activity in human BXPC-3 cells assessed as reduction in cell migration at 6.25 to 25 uM incubated for 48 hrs by wound healing assay; format: functional, cell-based; conditions: dose 6.25-25 µM
BXPC-3 [8] = test: Antiproliferative activity against human BxPC-3 cells assessed as effect on cathepsin L mRNA expression level at 6.25 to 25 uM incubated for 48 hrs by RT-PCR analysis; format: functional, cell-based; conditions: dose 6.25-25 µM
PANC-1 [9] = test: Antiproliferative activity against human PANC-1 cells assessed as effect on cathepsin L mRNA expression level at 6.25 to 25 uM incubated for 48 hrs by RT-PCR analysis; format: functional, cell-based; conditions: dose 6.25-25 µM
BXPC-3 [10] = test: Anti-invasive activity in human BXPC-3 cells assessed as reduction in cell invasion at 6.25 to 25 uM incubated for 24 hrs by crystal violet staining based transwell migration assay; format: functional; conditions: dose 6.25-25 µM
Procathepsin L [11] = biological target: T2, Procathepsin L; test: Inhibition of cathepsin L activity in human BXPC-3 cells at 6.25 to 25 uM incubated for 48 hrs by fluorescence-based assay; format: cell-based; conditions: dose 6.25-25 µM
Target sequence in this assay (P07711 114-333 limits assumed): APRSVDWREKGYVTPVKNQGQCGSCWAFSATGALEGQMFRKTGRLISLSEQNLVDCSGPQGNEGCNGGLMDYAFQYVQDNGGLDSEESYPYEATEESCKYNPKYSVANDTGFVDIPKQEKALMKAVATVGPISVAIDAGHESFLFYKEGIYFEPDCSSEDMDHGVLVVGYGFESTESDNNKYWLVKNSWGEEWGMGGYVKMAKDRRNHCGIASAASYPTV

Cathepsin S [12] = biological target: T1, Cathepsin S; test: Inhibition of cathepsin S activity in human BXPC-3 cells at 6.25 to 25 uM incubated for 48 hrs by fluorescence-based assay; format: cell-based; conditions: dose 6.25-25 µM
Target sequence in this assay (P25774 115-331 limits assumed): as the sequence (P25774 115-331 limits assumed) above

Procathepsin L [13] = biological target: T2, Procathepsin L; test: Inhibition of cathepsin L activity in human PANC-1 cells at 6.25 to 25 uM incubated for 48 hrs by fluorescence-based assay; format: cell-based; conditions: dose 6.25-25 µM
Target sequence in this assay (P07711 114-333 limits assumed): as the sequence (P07711 114-333 limits assumed) above

PANC-1 [14] = test: Antiproliferative activity against human PANC-1 cells assessed as reduction of cell viability at <25 uM by MTT assay; format: functional

| Compound | IC50 (Cathepsin B) [µM] | IC50 (Cathepsin S [1]) [µM] | IC50 (Procathepsin L [2]) [µM] | IC50 (Cathepsin K) [µM] | other results |
| --- | --- | --- | --- | --- | --- |
| N#Cc1ccccc1N1CCN(C[C@H](O)COC[C@H](Cc2ccccc2)NC(=O)C2CCN(C(=O)OCc3ccccc3)CC2)CC1 | > 100 | 11.1 | 14.5 | > 100 |  |
| COc1ccc(/C=C/C(=O)NC[C@H](Cc2ccccc2)NS(=O)(=O)c2ccc(Br)cc2)cc1OC | > 100 | > 100 | > 100 | > 100 |  |
| N#Cc1ccccc1N1CCN(C[C@H](O)COC[C@@H](Cc2ccccc2)NC(=O)c2ccncc2)CC1 | > 100 | 23.1 | 46.2 | > 100 |  |
| COc1cccc(/C=C/C(=O)NC[C@@H](Cc2ccccc2)NS(=O)(=O)c2ccc(C(F)(F)F)cc2)c1 | > 100 | 64.5 | 51.7 | > 100 |  |
| O=C(OC[C@@H](Cc1ccccc1)NS(=O)(=O)c1ccc(Br)cc1)[C@@H](Cc1ccccc1)NS(=O)(=O)c1ccccc1 | > 100 | 5.02 | 6.03 | > 100 |  |
| N#Cc1ccccc1N1CCN(C[C@@H](O)COC[C@@H](Cc2ccccc2)NC(=O)c2ccncc2)CC1 | > 100 | 48.9 | 29.8 | > 100 |  |
| N#Cc1ccccc1N1CCN(C[C@H](O)COC[C@@H](Cc2ccccc2)NC(=O)C2CCN(C(=O)OCc3ccccc3)CC2)CC1 | > 100 | > 100 | > 100 | > 100 |  |
| N#Cc1ccccc1N1CCN(C[C@H](O)COC[C@@H](Cc2ccccc2)NS(=O)(=O)c2ccc(Br)cc2)CC1 | > 100 | 4.38 | 7.5 | > 100 |  |
| N#Cc1ccccc1N1CCN(C[C@H](O)COC[C@H](Cc2ccccc2)NC(=O)c2ccncc2)CC1 | > 100 | 16.1 | 9.37 | > 100 |  |
| N#Cc1ccccc1N1CCN(C[C@@H](O)COC[C@@H](Cc2ccccc2)NC(=O)C2CCN(C(=O)OCc3ccccc3)CC2)CC1 | > 100 | > 100 | > 100 | > 100 |  |
| COc1cccc(/C=C/C(=O)NC[C@@H](Cc2ccccc2)NS(=O)(=O)c2ccc(Br)cc2)c1 | > 100 | 41 | 23.9 | > 100 |  |
| COc1ccc(/C=C/C(=O)NC[C@H](Cc2ccccc2)NS(=O)(=O)c2ccc(C(F)(F)F)cc2)cc1OC | > 100 | > 100 | > 100 | > 100 |  |
| N#Cc1ccccc1N1CCN(C[C@@H](O)COC[C@H](Cc2ccccc2)NC(=O)C2CCN(C(=O)OCc3ccccc3)CC2)CC1 | > 100 | 22.7 | 19.5 | > 100 |  |
| N#Cc1ccccc1N1CCN(C[C@@H](O)COC[C@H](Cc2ccccc2)NS(=O)(=O)c2ccc(C(F)(F)F)cc2)CC1 | > 100 | 29.2 | 45.9 | > 100 |  |
| COc1cccc(/C=C/C(=O)NC[C@H](Cc2ccccc2)NS(=O)(=O)c2ccc(Br)cc2)c1 | > 100 | > 100 | > 100 | > 100 |  |
| N#Cc1ccccc1N1CCN(C[C@H](O)COC[C@H](Cc2ccccc2)NS(=O)(=O)c2ccc(Br)cc2)CC1 | > 100 | 7.72 | 8.53 | > 100 |  |
| COc1ccc(/C=C/C(=O)NC[C@@H](Cc2ccccc2)NS(=O)(=O)c2ccc(Br)cc2)cc1OC | > 100 | > 100 | > 100 | > 100 |  |
| N#Cc1ccccc1N1CCN(C[C@H](O)COC[C@@H](Cc2ccccc2)NS(=O)(=O)c2ccc(C(F)(F)F)cc2)CC1 | > 100 | 40.4 | 40.7 | > 100 |  |
| N#Cc1ccccc1N1CCN(C[C@@H](O)COC[C@H](Cc2ccccc2)NS(=O)(=O)c2ccc(Br)cc2)CC1 | > 100 | 5.46 | 5.47 | > 100 |  |
| N#Cc1ccccc1N1CCN(C[C@H](O)COC[C@H](Cc2ccccc2)NS(=O)(=O)c2ccc(C(F)(F)F)cc2)CC1 | > 100 | 30.7 | 41.1 | > 100 |  |
| COc1cccc(/C=C/C(=O)NC[C@H](Cc2ccccc2)NS(=O)(=O)c2ccc(C(F)(F)F)cc2)c1 | > 100 | > 100 | > 100 | > 100 |  |
| COc1ccc(/C=C/C(=O)NC[C@@H](Cc2ccccc2)NS(=O)(=O)c2ccc(C(F)(F)F)cc2)cc1OC | > 100 | 21.2 | 12.3 | > 100 |  |
| N#Cc1ccccc1N1CCN(C[C@@H](O)COC[C@@H](Cc2ccccc2)NS(=O)(=O)c2ccc(Br)cc2)CC1 | > 100 | 1.79 | 4.1 | > 100 | Activity (PANC-1 [3]): Dose-Dependent Effect; Activity (PANC-1 [4]): Dose-Dependent Effect; Activity (BXPC-3 [5]): 100%; inhibition (Cathepsin S [6]): Dose-Dependent Effect; Activity (BXPC-3 [7]): Dose-Dependent Effect; Activity (BXPC-3 [8]): inactive; Activity (PANC-1 [9]): inactive; Activity (BXPC-3 [10]): Dose-Dependent Effect; inhibition (Procathepsin L [11]): Dose-Dependent Effect; inhibition (Cathepsin S [12]): Dose-Dependent Effect; inhibition (Procathepsin L [13]): Dose-Dependent Effect; Activity (PANC-1 [14]): 100% |
| N#Cc1ccccc1N1CCN(C[C@@H](O)COC[C@@H](Cc2ccccc2)NS(=O)(=O)c2ccc(C(F)(F)F)cc2)CC1 | > 100 | 22.3 | 10.5 | > 100 |  |
| N#Cc1ccccc1N1CCN(C[C@@H](O)COC[C@H](Cc2ccccc2)NC(=O)c2ccncc2)CC1 | > 100 | 28.8 | 18.6 | > 100 |  |
